Test results published in the NIST ThermoML archive (doi:10.1021/je101361u).

Settings: 101.33 kPa, Liquid

COCCOC [1,2-dimethoxyethane]
Settings	mass density [kg/m3]
283.15 K	877.64
284.15 K	876.56
285.15 K	875.48
286.15 K	874.4
287.15 K	873.31
288.15 K	872.23
289.15 K	871.14
290.15 K	870.05
291.15 K	868.96
292.15 K	867.87
293.15 K	866.79
294.15 K	865.7
295.15 K	864.61
296.15 K	863.51
297.15 K	862.42
298.15 K	861.32
299.15 K	860.22
300.15 K	859.12
301.15 K	858.01
302.15 K	856.91
303.15 K	855.8
304.15 K	854.69
305.15 K	853.58
306.15 K	852.46
307.15 K	851.35
308.15 K	850.24
309.15 K	849.13
310.15 K	848.02
311.15 K	846.9
312.15 K	845.79
313.15 K	844.67
314.15 K	843.55
315.15 K	842.42
316.15 K	841.29
317.15 K	840.17
318.15 K	839.04
319.15 K	837.91
320.15 K	836.77
321.15 K	835.64
322.15 K	834.5
323.15 K	833.36
324.15 K	832.22
325.15 K	831.08
326.15 K	829.93
327.15 K	828.78
328.15 K	827.63
329.15 K	826.48
330.15 K	825.33
331.15 K	824.17
332.15 K	823.02
333.15 K	821.86

CCOCCOCCOCC [diethylene glycol diethyl ether]
Settings	mass density [kg/m3]
283.15 K	916.36
284.15 K	915.39
285.15 K	914.43
286.15 K	913.46
287.15 K	912.5
288.15 K	911.53
289.15 K	910.57
290.15 K	909.6
291.15 K	908.63
292.15 K	907.67
293.15 K	906.71
294.15 K	905.75
295.15 K	904.78
296.15 K	903.81
297.15 K	902.85
298.15 K	901.88
299.15 K	900.92
300.15 K	899.95
301.15 K	898.98
302.15 K	898.02
303.15 K	897.05
304.15 K	896.08
305.15 K	895.12
306.15 K	894.15
307.15 K	893.18
308.15 K	892.21
309.15 K	891.25
310.15 K	890.28
311.15 K	889.31
312.15 K	888.34
313.15 K	887.37
314.15 K	886.4
315.15 K	885.43
316.15 K	884.46
317.15 K	883.48
318.15 K	882.51
319.15 K	881.54
320.15 K	880.57
321.15 K	879.6
322.15 K	878.63
323.15 K	877.66
324.15 K	876.7
325.15 K	875.73
326.15 K	874.75
327.15 K	873.78
328.15 K	872.81
329.15 K	871.84
330.15 K	870.87
331.15 K	869.89
332.15 K	868.92
333.15 K	867.94

COCCOCCOC [2,5,8-trioxanonane]
Settings	mass density [kg/m3]
283.15 K	953.66
284.15 K	952.67
285.15 K	951.69
286.15 K	950.7
287.15 K	949.71
288.15 K	948.72
289.15 K	947.73
290.15 K	946.74
291.15 K	945.75
292.15 K	944.76
293.15 K	943.76
294.15 K	942.79
295.15 K	941.79
296.15 K	940.79
297.15 K	939.8
298.15 K	938.8
299.15 K	937.8
300.15 K	936.81
301.15 K	935.81
302.15 K	934.82
303.15 K	933.82
304.15 K	932.82
305.15 K	931.82
306.15 K	930.82
307.15 K	929.83
308.15 K	928.83
309.15 K	927.82
310.15 K	926.83
311.15 K	925.82
312.15 K	924.82
313.15 K	923.82
314.15 K	922.81
315.15 K	921.81
316.15 K	920.8
317.15 K	919.8
318.15 K	918.79
319.15 K	917.78
320.15 K	916.78
321.15 K	915.77
322.15 K	914.75
323.15 K	913.75
324.15 K	912.73
325.15 K	911.72
326.15 K	910.7
327.15 K	909.69
328.15 K	908.67
329.15 K	907.65
330.15 K	906.63
331.15 K	905.62
332.15 K	904.6
333.15 K	903.59

ClCCCl [1,2-dichloroethane]
Settings	mass density [kg/m3]
283.15 K	1267.39
284.15 K	1265.95
285.15 K	1264.5
286.15 K	1263.05
287.15 K	1261.6
288.15 K	1260.15
289.15 K	1258.7
290.15 K	1257.25
291.15 K	1255.8
292.15 K	1254.35
293.15 K	1252.89
294.15 K	1251.44
295.15 K	1249.98
296.15 K	1248.52
297.15 K	1247.07
298.15 K	1245.61
299.15 K	1244.15
300.15 K	1242.69
301.15 K	1241.22
302.15 K	1239.76
303.15 K	1238.29
304.15 K	1236.83
305.15 K	1235.36
306.15 K	1233.89
307.15 K	1232.42
308.15 K	1230.95
309.15 K	1229.47
310.15 K	1228
311.15 K	1226.53
312.15 K	1225.05
313.15 K	1223.57
314.15 K	1222.09
315.15 K	1220.61
316.15 K	1219.13
317.15 K	1217.64
318.15 K	1216.16
319.15 K	1214.67
320.15 K	1213.18
321.15 K	1211.69
322.15 K	1210.2
323.15 K	1208.7
324.15 K	1207.21
325.15 K	1205.71
326.15 K	1204.21
327.15 K	1202.71
328.15 K	1201.21
329.15 K	1199.7
330.15 K	1198.19
331.15 K	1196.69
332.15 K	1195.18
333.15 K	1193.66
